Values of other authors, collected in US20060014732A1, “Use of targeted oxidative therapeutic formulation in treatment of burns” (priority 2004, published 2006).

Assays:
[1] = tested on: multiple-drug resistant strain of Staphylococcus aureus; conditions: growing culture of S. aureus, 8 hours, with or without illumination
E. coli = conditions: increasing concentration of peroxide ex-vivo in rabbit or human blood
[2] = tested on: peroxide-sensitive E. coli; conditions: infused into the blood

Compound	bactericidal effect in culture [1]	direct bactericidal activity (E. coli)	bactericidal effect [2]
hemin	moderately bactericidal but light independent	–	–
CC1=C(CCC(=O)O)c2cc3nc(cc4[nH]c(cc4C)cc4[nH]c(cc1n2)cc4C)C(C)=C3CCC(=O)O [deuteroporphyrin]	strongly bactericidal only after photosensitization	–	–
OO [hydrogen peroxide, Hydrogen peroxide]	–	no evidence of direct bactericidal activity	no bactericidal effect
